Where a name gives a salt, the structure may show the parent alone.
These molecules were tested against PDE4D7 (Homo sapiens (Human), UniProt Q08499). Settings: read-out: PDE4D7 IC50; PDE4D7 without asterisk.
Sequence of PDE4D7 (Q08499 other isoform, or with tags, fused parts or gaps): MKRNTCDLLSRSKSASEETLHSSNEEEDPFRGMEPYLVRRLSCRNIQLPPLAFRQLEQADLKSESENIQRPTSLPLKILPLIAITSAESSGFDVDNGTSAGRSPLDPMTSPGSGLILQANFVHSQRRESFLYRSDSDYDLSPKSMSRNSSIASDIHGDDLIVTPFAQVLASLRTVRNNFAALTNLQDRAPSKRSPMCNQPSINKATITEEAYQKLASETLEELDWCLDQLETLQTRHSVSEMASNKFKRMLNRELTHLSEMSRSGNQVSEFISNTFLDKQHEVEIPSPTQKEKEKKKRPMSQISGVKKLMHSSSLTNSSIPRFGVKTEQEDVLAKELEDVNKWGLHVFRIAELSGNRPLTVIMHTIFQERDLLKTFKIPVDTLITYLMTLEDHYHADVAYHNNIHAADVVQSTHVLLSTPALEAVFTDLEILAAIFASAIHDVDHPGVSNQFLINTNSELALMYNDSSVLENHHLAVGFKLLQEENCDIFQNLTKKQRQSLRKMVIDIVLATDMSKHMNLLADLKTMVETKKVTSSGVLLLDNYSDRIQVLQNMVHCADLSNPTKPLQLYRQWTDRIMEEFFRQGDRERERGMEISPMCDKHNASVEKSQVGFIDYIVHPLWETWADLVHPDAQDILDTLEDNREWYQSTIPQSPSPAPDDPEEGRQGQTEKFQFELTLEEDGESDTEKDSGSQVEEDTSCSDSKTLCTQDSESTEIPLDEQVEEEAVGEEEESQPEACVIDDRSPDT

| Compound | IC50 [nM] |
| --- | --- |
| OCCc1ccc(Nc2cc(C3CCCC3)nc3c2CCC3)cc1 [Example 249, 2-(4-((2-cyclopentyl-6,7-dihydro-5H-cyclopenta[b]pyridin-4-yl)amino)phenyl)ethanol hydrochloride] | > 1000 |
| OCCc1ccc(Nc2cc(-c3cccc(Cl)c3)nc(C3CC3)c2)cc1 [Example 140, 2-(4-((2-(3-Chlorophenyl)-6-cyclopropylpyridin-4-yl)amino)phenyl)ethanol hydrochloride] | > 1000 |
| NC(=O)Cc1ccc(Nc2cc(-c3cc(F)cc(Cl)c3)nc3c2CCC3)cc1 [Example 152, 2-(4-((2-(3-Chloro-5-fluorophenyl)-6,7-dihydro-5H-cyclopenta[b]pyridin-4-yl)amino)phenyl)acetamide hydrochloride] | > 1000 |
| O=C(O)CCCc1ccc(Nc2cc(-c3cccc(Cl)c3)nc3c2CCC3)cc1 [Example 8, 4-[4-[[2-(3-Chlorophenyl)-6,7-dihydro-5H-cyclopenta[b]pyridin-4-yl]amino]phenyl]butanoic acid] | > 1000 |
| NC(=O)Cc1ccc(Nc2cc(-c3ccc(F)c(Cl)c3)nc3c2CCC3)cc1 [Example 150, 2-(4-((2-(3-Chloro-4-fluorophenyl)-6,7-dihydro-5H-cyclopenta[b]pyridin-4-yl)amino)phenyl)acetamide hydrochloride] | > 1000 |
| CCc1c(C)nc(-c2ccc(Cl)s2)nc1Nc1ccc(C2=C(O)CCC2=O)cc1 [Example 303, 2-[4-[[2-(5-Chloro-2-thienyl)-5-ethyl-6-methyl-pyrimidin-4-yl]amino]phenyl]-3-hydroxy-cyclopent-2-en-1-one] | > 1000 |
| NC(=O)Cc1ccc(Nc2cc(-c3cccc(Cl)c3)nc(C3CC3)c2)cc1 [Example 139, 2-(4-((2-(3-Chlorophenyl)-6-cyclopropylpyridin-4-yl)amino)phenyl)acetamide hydrochloride] | < 1000 |
| OCCc1ccc(Nc2cc(-c3ccc(Cl)c(Cl)c3)nc3c2CCC3)cc1 [Example 154, 2-(4-((2-(3,4-Dichlorophenyl)-6,7-dihydro-5H-cyclopenta[b]pyridin-4-yl)amino)phenyl)ethanol hydrochloride] | > 1000 |
| NC(=O)Cc1ccc(Nc2cc(-c3ccc(Cl)cc3)nc3c2CCC3)cc1 [Example 148, 2-(4-((2-(4-Chlorophenyl)-6,7-dihydro-5H-cyclopenta[b]pyridin-4-yl)amino)phenyl)acetamide hydrochloride] | > 1000 |
| CCc1nc(Nc2ccc(CCO)cc2)cc(-c2cccc(Cl)c2)n1 [Example 264, 2-(4-((6-(3-Chlorophenyl)-2-ethylpyrimidin-4-yl)amino)phenyl)ethanol] | < 1000 |
| Clc1cccc(-c2nc3c(c(Nc4ccc(Cc5nn[nH]n5)cc4)n2)SCCC3)c1 [Example 313, 2-(3-Chlorophenyl)-N-[4-(2H-tetrazol-5-ylmethyl)phenyl]-7,8-dihydro-6H-thiopyrano[3,2-d]pyrimidin-4-amine] | < 1000 |
| O=C(O)Cc1ccc(Nc2cc(C3CCCC3)nc(C(F)(F)F)c2)cc1 [Example 161, 2-(4-((2-Cyclopentyl-6-(trifluoromethyl)pyridin-4-yl)amino)phenyl)acetic acid] | > 1000 |
| CCc1c(C)nc(-c2ccc(Cl)s2)nc1Nc1ccc2c(c1)COB2O [Example 71, 2-(5-chloro-2-thienyl)-5-ethyl-N-(1-hydroxy-3H-2,1-benzoxaborol-5-yl)-6-methyl-pyrimidin-4-amine] | < 1000 |
| NC(=O)Cc1ccc(Nc2nc(C3CCCC3)nc3c2S(=O)(=O)CCC3)cc1 [Example 286, 2-(4-((2-cyclopentyl-5,5-dioxido-7,8-dihydro-6H-thiopyrano[3,2-d]pyrimidin-4-yl)amino)phenyl)acetamide] | < 1000 |
| NC(=O)Cc1ccc(Nc2nc(-c3cccc(Cl)c3)nc3c2CCCC3)cc1 [Example 234, 2-(4-((2-(3-Chlorophenyl)-5,6,7,8-tetrahydroquinazolin-4-yl)amino)phenyl)acetamide] | < 1000 |
| CCc1c(Nc2ccc(CC(=O)O)cc2)cc(-c2cccc(Cl)c2)nc1C [Example 7, 2-[4-[[6-(3-Chlorophenyl)-3-ethyl-2-methyl-4-pyridyl]amino]phenyl]acetic acid] | > 1000 |
| OB1OCc2cc(Nc3nc(-c4ccc(Cl)s4)nc4c3CCC4)ccc21 [Example 293, 2-(5-Chloro-2-thienyl)-N-(1-hydroxy-3H-2,1-benzoxaborol-5-yl)-6,7-dihydro-5H-cyclopenta[d]pyrimidin-4-amine] | < 1000 |
| OCCc1ccc(Cc2cc(-c3cccc(Cl)c3)nc(C(F)(F)F)c2)cc1 [Example 143, 2-(4-((2-(3-Chlorophenyl)-6-(trifluoromethyl)pyridin-4-yl)methyl)phenyl)ethanol] | > 1000 |
| CCc1nc(Nc2ccc(CC(=O)O)cc2)nc(-c2ccc(Cl)s2)n1 [Example 27, 2-(4-((4-(5-chlorothiophen-2-yl)-6-ethyl-1,3,5-triazin-2-yl)amino)phenyl)acetic acid] | > 1000 |
| CC(=O)NC(C(=O)O)c1ccc(Nc2nc(-c3ccc(Cl)s3)nc3c2CCC3)cc1 (stereo not shown) [Example 11, 2-Acetamido-2-[4-[[2-(5-chloro-2-thienyl)-6,7-dihydro-5H-cyclopenta[d]pyrimidin-4-yl]amino]phenyl]acetic acid] | > 1000 |
| Cc1ccc(C(=O)c2nc(-c3cccc(Cl)c3)nc3c2CCC3)cc1 [Example 70, (2-(3-Chlorophenyl)-6,7-dihydro-5H-cyclopenta[d]pyrimidin-4-yl)(p-tolyl)methanone] | > 1000 |
| CCCc1nc(Nc2ccc(CC(=O)O)cc2)nc(-c2ccc(Cl)s2)n1 [Example 32, 2-(4-((4-(5-chlorothiophen-2-yl)-6-propyl-1,3,5-triazin-2-yl)amino)phenyl)acetic acid] | > 1000 |
| CCc1c(C)nc(-c2ccc(Cl)s2)nc1Nc1ccc(Cc2nc(C(=O)O)c[nH]2)cc1 [Example 306, 2-[[4-[[2-(5-Chloro-2-thienyl)-5-ethyl-6-methyl-pyrimidin-4-yl]amino]phenyl]methyl]-1H-imidazole-4-carboxylic acid] | > 1000 |
| CCOC(=O)Cc1ccc(Nc2cc(C3CC3)nc(-c3cccc(Cl)c3)n2)nc1 [Example 211, Ethyl 2-(6-((2-(3-chlorophenyl)-6-cyclopropylpyrimidin-4-yl)amino)pyridin-3-yl)acetate] | > 1000 |
| NC(=O)Cc1ccc(Nc2cc(-c3ncco3)nc3c2CCC3)cc1 [Example 242, 2-(4-((2-(Oxazol-2-yl)-6,7-dihydro-5H-cyclopenta[b]pyridin-4-yl)amino)phenyl)acetamide] | > 1000 |
| Cc1cccc(-c2cc(Nc3ccc(CC(N)=O)cc3)c3c(n2)CCC3)c1 [Example 159, 2-(4-((2-(m-Tolyl)-6,7-dihydro-5H-cyclopenta[b]pyridin-4-yl)amino)phenyl)acetamide hydrochloride] | > 1000 |
| CCc1nc(Nc2ccc(C(=O)O)cc2)nc(-c2ccc(Cl)s2)n1 [Example 30, 4-(4-(5-chlorothiophen-2-yl)-6-ethyl-1,3,5-triazin-2-ylamino)benzoic acid] | < 1000 |
| NC(=O)Cc1ccc(Nc2nc(-c3ccccc3)nc3c2S(=O)(=O)CCC3)cc1 [Example 269, 2-(4-((5,5-dioxido-2-phenyl-7,8-dihydro-6H-thiopyrano[3,2-d]pyrimidin-4-yl)amino)phenyl)acetamide] | < 1000 |

Reference: patent publication US11401286B2 (Tetra Discovery Partners, LLC, priority 2012, dated 2022)
